Patent EP4745137A1 (Gluetacs Therapeutics (Shanghai) Co., Ltd., priority 2023, dated 2025)

Tests used:
Type in all cases: cell-based
Conditions in all cases: 24 hours of compound treatment
WEE1 = target: T1, WEE1 (Homo sapiens, UniProt P30291+Q96SW2); test: Western-blot assay of substrate protein degradation in hPBMCs, WEE1
T1 construct: endogenous in cells; host or cells: hPBMCs (Milecell Biotechnologies)
Protocol: (§1) After 24 hours of compounds treatment, cells were harvested and lysed in RIPA protein lysate containing protease inhibitors on ice for 30 min, followed by centrifugation. The supernatant was aspirated as the extracted total cell protein. The protein concentration of the supernatant was determined using the conventional BCA (Bicinchoninic Acid) assay. • (2) To the collected supernatant, 5X SDS sample loading buffer was added, followed by denaturation at 95°C for 5 minutes. The denatured samples were then separated by SDS-PAGE electrophoresis on a polyacrylamide gel, transferred onto a nitrocellulose membrane (0.45 µm NC membrane), blocked with blocking buffer at room temperature for 1 hour, and subjected to antibody incubation and development procedures according to the antibody manufacturer's instructions (Cell Signaling Technology Company). […]
(§2) Target protein remaining (%) refers to the percentage of target protein remaining in cells after treatment with protein degrader compounds.
(§3) Calculation method for target protein remaining (%): Use ImageJ software to measure grayscale values of Western blot bands from drug (protein degrader)-treated samples. The grayscale value of drug-treated bands is divided by that of internal control protein bands, and the resulting quotient is normalized to obtain the relative percentage of remaining target protein after protein degrader treatment. Target protein degradation rate(%) = 1−target protein remaining(%). [formula]

IKZF1 = target: T2, IKZF1 (Homo sapiens, UniProt Q13422+Q96SW2); test: Western-blot assay of substrate protein degradation in hPBMCs, IKZF1
T2 construct: endogenous in cells; host or cells: hPBMCs (Milecell Biotechnologies)
Protocol: as §1, §2, §3

IKZF2 = target: T3, IKZF2 (Homo sapiens, UniProt Q96SW2+Q9UKS7); test: Western-blot assay of substrate protein degradation in hPBMCs, IKZF2
T3 construct: endogenous in cells; host or cells: hPBMCs (Milecell Biotechnologies)
Protocol: as §1, §2, §3

IKZF3 = target: T4, IKZF3 (Homo sapiens, UniProt Q96SW2+Q9UKT9); test: Western-blot assay of substrate protein degradation in hPBMCs, IKZF3
T4 construct: endogenous in cells; host or cells: hPBMCs (Milecell Biotechnologies)
Protocol: as §1, §2, §3

CK1α = target: T5, CK1α (Homo sapiens, UniProt P48729+Q96SW2); test: Western-blot assay of substrate protein degradation in hPBMCs, CK1α
T5 construct: endogenous in cells; host or cells: hPBMCs (Milecell Biotechnologies)
Protocol: as §1, §2, §3

GSPT1 = target: T6, GSPT1 (Homo sapiens, UniProt P15170+Q96SW2); test: Western-blot assay of substrate protein degradation in hPBMCs, GSPT1
T6 construct: endogenous in cells; host or cells: hPBMCs (Milecell Biotechnologies)
Protocol: as §1, §2, §3

[1] = compounds tested at 50 nM and 500 nM (concentration of the table not stated)
[2] = 50 nM and 500 nM tested (concentration behind the class not stated)

T3 sequence (Q9UKS7 whole entry): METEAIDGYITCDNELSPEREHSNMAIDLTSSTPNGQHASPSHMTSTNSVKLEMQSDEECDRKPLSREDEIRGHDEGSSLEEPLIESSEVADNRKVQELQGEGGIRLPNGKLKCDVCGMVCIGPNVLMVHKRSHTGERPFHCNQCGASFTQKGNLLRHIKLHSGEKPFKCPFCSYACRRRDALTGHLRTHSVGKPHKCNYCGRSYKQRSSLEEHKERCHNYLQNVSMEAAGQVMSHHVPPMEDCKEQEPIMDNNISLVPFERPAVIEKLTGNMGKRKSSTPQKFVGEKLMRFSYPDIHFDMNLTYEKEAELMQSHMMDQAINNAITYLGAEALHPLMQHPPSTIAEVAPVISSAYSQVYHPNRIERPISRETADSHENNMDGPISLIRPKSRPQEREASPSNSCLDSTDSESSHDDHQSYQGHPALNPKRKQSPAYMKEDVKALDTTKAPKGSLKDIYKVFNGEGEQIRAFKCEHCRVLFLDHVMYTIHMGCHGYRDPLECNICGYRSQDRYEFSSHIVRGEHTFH
T3 sequence (Q96SW2 whole entry): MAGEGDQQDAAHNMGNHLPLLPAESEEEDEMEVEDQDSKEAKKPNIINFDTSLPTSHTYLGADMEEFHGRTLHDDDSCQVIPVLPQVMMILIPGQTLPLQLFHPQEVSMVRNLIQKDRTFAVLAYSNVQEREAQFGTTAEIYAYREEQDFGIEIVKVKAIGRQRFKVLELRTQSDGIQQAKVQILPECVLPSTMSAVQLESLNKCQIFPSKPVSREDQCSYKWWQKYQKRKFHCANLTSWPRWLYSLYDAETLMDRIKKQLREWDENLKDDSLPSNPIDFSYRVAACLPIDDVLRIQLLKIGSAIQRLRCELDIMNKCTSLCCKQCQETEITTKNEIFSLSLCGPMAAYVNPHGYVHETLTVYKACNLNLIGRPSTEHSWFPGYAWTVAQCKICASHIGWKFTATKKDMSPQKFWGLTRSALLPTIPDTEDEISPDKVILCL
T3 sequence (Q16531 whole entry partner): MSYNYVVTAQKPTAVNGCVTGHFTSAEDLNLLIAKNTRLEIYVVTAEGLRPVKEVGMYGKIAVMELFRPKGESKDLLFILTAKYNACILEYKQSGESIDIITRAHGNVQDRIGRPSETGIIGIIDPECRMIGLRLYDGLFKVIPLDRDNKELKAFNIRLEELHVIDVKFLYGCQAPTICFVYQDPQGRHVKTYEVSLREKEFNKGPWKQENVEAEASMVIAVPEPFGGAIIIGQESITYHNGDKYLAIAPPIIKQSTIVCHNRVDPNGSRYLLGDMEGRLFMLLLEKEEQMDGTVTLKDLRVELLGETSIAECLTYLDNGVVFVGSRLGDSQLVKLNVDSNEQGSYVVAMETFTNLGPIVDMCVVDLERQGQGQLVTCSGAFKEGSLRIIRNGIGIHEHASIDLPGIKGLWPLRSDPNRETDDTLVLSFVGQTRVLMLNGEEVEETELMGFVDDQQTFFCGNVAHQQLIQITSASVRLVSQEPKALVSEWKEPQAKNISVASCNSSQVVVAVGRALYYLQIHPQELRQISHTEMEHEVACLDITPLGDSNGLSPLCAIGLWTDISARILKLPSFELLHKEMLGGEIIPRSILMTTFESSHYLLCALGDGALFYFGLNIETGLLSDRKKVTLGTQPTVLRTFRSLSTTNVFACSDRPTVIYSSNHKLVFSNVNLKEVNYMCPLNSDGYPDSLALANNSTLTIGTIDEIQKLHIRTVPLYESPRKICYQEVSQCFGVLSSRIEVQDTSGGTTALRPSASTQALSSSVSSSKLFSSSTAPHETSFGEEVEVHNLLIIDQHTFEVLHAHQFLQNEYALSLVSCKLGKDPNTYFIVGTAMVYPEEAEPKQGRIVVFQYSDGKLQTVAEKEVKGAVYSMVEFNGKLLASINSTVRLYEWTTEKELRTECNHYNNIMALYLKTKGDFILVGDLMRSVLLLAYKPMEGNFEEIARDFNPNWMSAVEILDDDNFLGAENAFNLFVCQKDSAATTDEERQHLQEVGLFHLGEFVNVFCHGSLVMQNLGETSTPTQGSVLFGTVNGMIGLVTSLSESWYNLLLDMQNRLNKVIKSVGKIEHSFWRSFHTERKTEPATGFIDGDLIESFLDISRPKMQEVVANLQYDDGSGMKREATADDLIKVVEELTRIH
T6 sequence (P15170 whole entry): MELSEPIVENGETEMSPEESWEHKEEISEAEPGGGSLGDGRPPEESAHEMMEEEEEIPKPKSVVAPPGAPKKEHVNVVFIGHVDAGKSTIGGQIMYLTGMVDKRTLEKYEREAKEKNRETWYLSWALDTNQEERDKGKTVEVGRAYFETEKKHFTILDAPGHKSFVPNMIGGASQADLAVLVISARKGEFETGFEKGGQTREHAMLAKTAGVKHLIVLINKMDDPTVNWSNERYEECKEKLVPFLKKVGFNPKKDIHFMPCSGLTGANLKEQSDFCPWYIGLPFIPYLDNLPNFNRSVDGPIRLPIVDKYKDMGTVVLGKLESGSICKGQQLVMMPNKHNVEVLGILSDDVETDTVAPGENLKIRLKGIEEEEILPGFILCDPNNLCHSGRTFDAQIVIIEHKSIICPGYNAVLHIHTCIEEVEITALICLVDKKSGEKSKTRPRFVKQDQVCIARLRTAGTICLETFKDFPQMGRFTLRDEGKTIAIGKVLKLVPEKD
T6 sequence (Q96SW2 whole entry): as the sequence (Q96SW2 whole entry) above
T6 sequence (Q16531 whole entry partner): as the sequence (Q16531 whole entry partner) above
T5 sequence (P48729 whole entry): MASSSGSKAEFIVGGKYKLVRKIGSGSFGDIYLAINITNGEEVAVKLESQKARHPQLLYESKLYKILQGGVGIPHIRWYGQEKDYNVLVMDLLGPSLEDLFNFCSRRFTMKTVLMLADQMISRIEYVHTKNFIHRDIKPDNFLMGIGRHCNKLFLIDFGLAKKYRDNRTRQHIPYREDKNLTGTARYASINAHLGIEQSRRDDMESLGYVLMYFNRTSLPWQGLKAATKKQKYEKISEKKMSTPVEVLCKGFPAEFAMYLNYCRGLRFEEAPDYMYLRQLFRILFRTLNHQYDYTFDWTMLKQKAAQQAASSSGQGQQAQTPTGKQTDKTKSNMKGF
T5 sequence (Q96SW2 whole entry): as the sequence (Q96SW2 whole entry) above
T5 sequence (Q16531 whole entry partner): as the sequence (Q16531 whole entry partner) above
T2 sequence (Q13422 whole entry): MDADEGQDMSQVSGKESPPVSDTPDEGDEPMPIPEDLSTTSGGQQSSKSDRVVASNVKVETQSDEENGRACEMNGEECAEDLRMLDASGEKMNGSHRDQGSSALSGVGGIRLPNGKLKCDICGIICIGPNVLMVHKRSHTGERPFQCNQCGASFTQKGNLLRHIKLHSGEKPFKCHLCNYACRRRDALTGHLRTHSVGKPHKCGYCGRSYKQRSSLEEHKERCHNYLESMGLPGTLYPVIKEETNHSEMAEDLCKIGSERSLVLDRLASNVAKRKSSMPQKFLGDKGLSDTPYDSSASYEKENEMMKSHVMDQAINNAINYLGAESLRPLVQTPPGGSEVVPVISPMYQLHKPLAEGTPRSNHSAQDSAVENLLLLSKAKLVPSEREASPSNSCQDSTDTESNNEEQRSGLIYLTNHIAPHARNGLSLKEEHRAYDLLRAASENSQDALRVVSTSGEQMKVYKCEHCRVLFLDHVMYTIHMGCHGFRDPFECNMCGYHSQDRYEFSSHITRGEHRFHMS
T2 sequence (Q96SW2 whole entry): as the sequence (Q96SW2 whole entry) above
T2 sequence (Q16531 whole entry partner): as the sequence (Q16531 whole entry partner) above
T1 sequence (P30291 whole entry): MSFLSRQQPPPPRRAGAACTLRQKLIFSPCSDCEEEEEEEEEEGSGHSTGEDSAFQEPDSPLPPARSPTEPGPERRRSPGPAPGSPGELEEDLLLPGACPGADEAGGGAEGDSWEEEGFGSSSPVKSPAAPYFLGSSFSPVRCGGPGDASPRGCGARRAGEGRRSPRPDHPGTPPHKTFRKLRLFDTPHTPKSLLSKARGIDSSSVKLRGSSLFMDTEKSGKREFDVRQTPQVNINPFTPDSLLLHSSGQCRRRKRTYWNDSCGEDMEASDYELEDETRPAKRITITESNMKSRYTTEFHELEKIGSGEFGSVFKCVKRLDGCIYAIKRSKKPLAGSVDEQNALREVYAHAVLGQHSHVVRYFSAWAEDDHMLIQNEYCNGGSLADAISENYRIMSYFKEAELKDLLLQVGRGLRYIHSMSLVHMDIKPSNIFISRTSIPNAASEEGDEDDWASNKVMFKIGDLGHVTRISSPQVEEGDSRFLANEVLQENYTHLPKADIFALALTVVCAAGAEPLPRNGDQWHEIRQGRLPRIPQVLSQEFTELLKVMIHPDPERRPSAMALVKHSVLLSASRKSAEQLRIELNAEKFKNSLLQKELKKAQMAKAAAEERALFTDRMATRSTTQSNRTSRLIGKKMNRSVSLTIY
T1 sequence (Q96SW2 whole entry): as the sequence (Q96SW2 whole entry) above
T1 sequence (Q16531 whole entry partner): as the sequence (Q16531 whole entry partner) above

| SMILES | Weel substrate protein remaining % (WEE1; [1]) | IKZF 1 substrate protein remaining % (IKZF1; [1]) | IKZF2 substrate protein remaining % (IKZF2; [1]) | IKZF3 substrate protein remaining % (IKZF3; [1]) | CK1a substrate protein remaining % (CK1α; [1]) | GSPT1 substrate protein remaining % (GSPT1; [1]) | Weel substrate protein remaining % (WEE1; [2]) | IKZF 1 substrate protein remaining % (IKZF1; [2]) | IKZF2 substrate protein remaining % (IKZF2; [2]) | IKZF3 substrate protein remaining % (IKZF3; [2]) | CK1a substrate protein remaining % (CK1α; [2]) | GSPT1 substrate protein remaining % (GSPT1; [2]) |
| --- | --- | --- | --- | --- | --- | --- | --- | --- | --- | --- | --- | --- |
| O=C1CCC(N2Cc3cc(CN4CCN(Cc5ccc(C67CC8CC(CC(C8)C6)C7)cc5)CC4)ccc3C2=O)C(=O)N1 (stereo not drawn) [GT-03026, 3-(5-((4-(4-((3r,5r,7r)-adamantan-1-yl)benzyl)piperazin-1-yl)methyl)-1-oxoisoindolin-2-yl)piperidine-2,6-dione] | B (80%< substrate protein remaining %≤ 100%) | A (0% ≤ substrate protein remaining % ≤ 80%) | A (0% ≤ substrate protein remaining % ≤ 80%) | A (0% ≤ substrate protein remaining % ≤ 80%) | A (0% ≤ substrate protein remaining % ≤ 80%) | A (0% ≤ substrate protein remaining % ≤ 80%) | – | – | – | – | – | – |
| O=C1CCC(N2Cc3cc(CN4CCn5c(nnc5C(F)(F)F)C4)ccc3C2=O)C(=O)N1 (stereo not drawn) [GT-04199, 3-(1-oxo-5-((3-(trifluoromethyl)-5,6-dihydro-[1,2,4]triazolo[4,3-a]pyrazin-7(8H)-yl)methyl)isoindolin-2-yl)piperidine-2,6-dione] | A (0% ≤ substrate protein remaining % ≤ 80%) | B (80%< substrate protein remaining %≤ 100%) | A (0% ≤ substrate protein remaining % ≤ 80%) | A (0% ≤ substrate protein remaining % ≤ 80%) | B (80%< substrate protein remaining %≤ 100%) | B (80%< substrate protein remaining %≤ 100%) | – | – | – | – | – | – |
| O=C1CCC(N2Cc3c(CN4CCC(c5noc6cc(F)ccc56)CC4)cccc3C2=O)C(=O)N1 (stereo not drawn) [GT-04764, 3-(4-((4-(6-fluorobenzo[d]isoxazol-3-yl)piperidin-1-yl)methyl)-1-oxoisoindolin-2-yl)piperidine-2,6-dione] | A (0% ≤ substrate protein remaining % ≤ 80%) | B (80%< substrate protein remaining %≤ 100%) | B (80%< substrate protein remaining %≤ 100%) | B (80%< substrate protein remaining %≤ 100%) | A (0% ≤ substrate protein remaining % ≤ 80%) | A (0% ≤ substrate protein remaining % ≤ 80%) | – | – | – | – | – | – |
| O=C1CCC(N2C(=O)c3cccc(CN4CCC(c5noc6cc(F)ccc56)CC4)c3C2=O)C(=O)N1 (stereo not drawn) [GT-04770, 2-(2,6-dioxopiperidin-3-yl)-4-((4-(6-fluorobenzo[d]isoxazol-3-yl)piperidin-1-yl)methyl)isoindoline-1,3-dione] | B (80%< substrate protein remaining %≤ 100%) | B (80%< substrate protein remaining %≤ 100%) | B (80%< substrate protein remaining %≤ 100%) | B (80%< substrate protein remaining %≤ 100%) | B (80%< substrate protein remaining %≤ 100%) | A (0% ≤ substrate protein remaining % ≤ 80%) | – | – | – | – | – | – |
| O=C1CCC(N2C(=O)c3ccc(CN4CCC(c5noc6cc(F)ccc56)CC4)cc3C2=O)C(=O)N1 (stereo not drawn) [GT-04771, 2-(2,6-dioxopiperidin-3-yl)-5-((4-(6-fluorobenzo[d]isoxazol-3-yl)piperidin-1-yl)methyl)isoindoline-1,3-dione] | A (0% ≤ substrate protein remaining % ≤ 80%) | B (80%< substrate protein remaining %≤ 100%) | B (80%< substrate protein remaining %≤ 100%) | B (80%< substrate protein remaining %≤ 100%) | A (0% ≤ substrate protein remaining % ≤ 80%) | A (0% ≤ substrate protein remaining % ≤ 80%) | – | – | – | – | – | – |
| O=C1CCC(N2Cc3c(CN4CCN(c5cccc6sccc56)CC4)cccc3C2=O)C(=O)N1 (stereo not drawn) [GT-04914, 3-(4-((4-(benzo[b]thiophen-4-yl)piperazin-1-yl)methyl)-1-oxoisoindolin-2-yl)piperidine-2,6-dione] | A (0% ≤ substrate protein remaining % ≤ 80%) | A (0% ≤ substrate protein remaining % ≤ 80%) | B (80%< substrate protein remaining %≤ 100%) | B (80%< substrate protein remaining %≤ 100%) | A (0% ≤ substrate protein remaining % ≤ 80%) | A (0% ≤ substrate protein remaining % ≤ 80%) | – | – | – | – | – | – |
| O=C1CCC(N2Cc3c(CN4CCn5c(nnc5C(F)(F)F)C4)cccc3C2=O)C(=O)N1 (stereo not drawn) [GT-04920, 3-(1-oxo-4-((3-(trifluoromethyl)-5,6-dihydro-[1,2,4]triazolo[4,3-a]pyrazin-7(8H)-yl)methyl)isoindolin-2-yl)piperidine-2,6-dione] | A (0% ≤ substrate protein remaining % ≤ 80%) | A (0% ≤ substrate protein remaining % ≤ 80%) | A (0% ≤ substrate protein remaining % ≤ 80%) | A (0% ≤ substrate protein remaining % ≤ 80%) | B (80%< substrate protein remaining %≤ 100%) | A (0% ≤ substrate protein remaining % ≤ 80%) | – | – | – | – | – | – |
| O=C1CCC(N2C(=O)c3ccc(CN4CCn5c(nnc5C(F)(F)F)C4)cc3C2=O)C(=O)N1 (stereo not drawn) [GT-04921, 2-(2,6-dioxopiperidin-3-yl)-5-((3-(trifluoromethyl)-5,6-dihydro-[1,2,4]triazolo[4,3-a]pyrazin-7(8H)-yl)methyl)isoindoline-1,3-dione] | A (0% ≤ substrate protein remaining % ≤ 80%) | A (0% ≤ substrate protein remaining % ≤ 80%) | B (80%< substrate protein remaining %≤ 100%) | B (80%< substrate protein remaining %≤ 100%) | B (80%< substrate protein remaining %≤ 100%) | B (80%< substrate protein remaining %≤ 100%) | – | – | – | – | – | – |
| Cc1ccsc1N1CCN(Cc2ccc3c(c2)C(=O)N(C2CCC(=O)NC2=O)C3=O)CC1 (stereo not drawn) [GT-06214, 2-(2,6-dioxopiperidin-3-yl)-5-((4-(3-methylthiophen-2-yl)piperazin-1-yl)methyl)isoindoline-1,3-dione] | – | – | – | – | – | – | B (80%< substrate protein remaining %≤ 100%) | B (80%< substrate protein remaining %≤ 100%) | A (0% ≤ substrate protein remaining % ≤ 80%) | B (80%< substrate protein remaining %≤ 100%) | B (80%< substrate protein remaining %≤ 100%) | A (0% ≤ substrate protein remaining % ≤ 80%) |
| Cc1cc(N2CCN(Cc3ccc4c(c3)C(=O)N(C3CCC(=O)NC3=O)C4=O)CC2)cs1 (stereo not drawn) [GT-06218, 2-(2,6-dioxopiperidin-3-yl)-5-((4-(5-methylthiophen-3-yl)piperazin-1-yl)methyl)isoindoline-1,3-dione] | – | – | – | – | – | – | A (0% ≤ substrate protein remaining % ≤ 80%) | B (80%< substrate protein remaining %≤ 100%) | B (80%< substrate protein remaining %≤ 100%) | A (0% ≤ substrate protein remaining % ≤ 80%) | A (0% ≤ substrate protein remaining % ≤ 80%) | A (0% ≤ substrate protein remaining % ≤ 80%) |
| O=C1CCC(N2C(=O)c3ccc(CN4CC=C(c5cccs5)CC4)cc3C2=O)C(=O)N1 (stereo not drawn) [GT-06219, 2-(2,6-dioxopiperidin-3-yl)-5-((4-(thiophen-2-yl)-3,6-dihydropyridin-1(2H)-yl)methyl)isoindoline-1,3-dione] | – | – | – | – | – | – | A (0% ≤ substrate protein remaining % ≤ 80%) | B (80%< substrate protein remaining %≤ 100%) | B (80%< substrate protein remaining %≤ 100%) | A (0% ≤ substrate protein remaining % ≤ 80%) | A (0% ≤ substrate protein remaining % ≤ 80%) | A (0% ≤ substrate protein remaining % ≤ 80%) |
| Cc1cscc1C1=CCN(Cc2ccc3c(c2)C(=O)N(C2CCC(=O)NC2=O)C3=O)CC1 (stereo not drawn) [GT-06221, 2-(2,6-dioxopiperidin-3-yl)-5-((4-(4-methylthiophen-3-yl)-3,6-dihydropyridin-1(2H)-yl)methyl)isoindoline-1,3-dione] | – | – | – | – | – | – | A (0% ≤ substrate protein remaining % ≤ 80%) | A (0% ≤ substrate protein remaining % ≤ 80%) | A (0% ≤ substrate protein remaining % ≤ 80%) | A (0% ≤ substrate protein remaining % ≤ 80%) | A (0% ≤ substrate protein remaining % ≤ 80%) | A (0% ≤ substrate protein remaining % ≤ 80%) |
